The target in this assay is T1, human GPR84 receptor (Homo sapiens, UniProt Q9NQS5).
T1 construct: host or cells: HEK293, transient transfection
Description: Gαi biosensor BRET assay in HEK293 cells (antagonism of ZQ-16). In kind it is cell-based. The conditions noted are these: for inhibition at 10 µM: HEK293, single concentration 10 μM (designated F); for IC50: HEK293 cells, antagonism of 200 nmol/L ZQ-16; for inhibition at 2 µM: HEK293, single concentration 2 μM (designated A); for inhibition at 25 µM: HEK293, single concentration 25 μM (designated I). The source says: Background—The following assays can be used for determination of GPR84 activation in living HEK293 cells. The Gai BRET biosensor (Gagnon et al., 2018; Gales et al., 2006. Nat StructMol Biol. 13, 778-86; Saulieres et al., 2012. Nat Chem Biol. 8, 622-30) allows to directly monitor GPR84-mediated activation of Gai. The Gai biosensor consists of a Rluc8-tagged Gαi2 subunit, a GFP10-tagged Gγ2 subunit, and an untagged Gβ1. Agonist stimulation and GPR84 activation triggers a physical separation between the RLuc8-Gαi donor and the GFP10-Gγ2 acceptor, resulting in a decrease in BRET signal whose amplitude is correlated to ligand efficacy (Gales et al., 2006). Moreover, signaling functions of GPCRs are tightly regulated by endocytosis, the targeting of receptors to endosomes and their sorting to lysosomes or recycling to the plasma membrane. The early endosomes (EEs) trafficking assay (Namkung et al., 2016. Nat Commun. 7, 12178) uses Rluc8-tagged GPR84 and Renilla GFP (rGFP) attached to the FYVE domain from human endofin/zinc finger FYVE domain-containing protein 16, which binds phosphatidylinositol 3-phosphate in EEs. Agonist stimulation of GPR84-Rluc8 leads to trafficking of the receptor to EEs, and ensuing increase of the donor concentration relative to the rGFP-FYVE acceptor anchored in the same cellular compartment, and thus results in an increase in BRET signal.
Plasmids—The cDNA clones for human GPR84 receptor, human Gai2, Gp1, and Gy2 were obtained from the cDNA Resource Center (www.cdna.org). GFP10 (F64L, S147P, S202F and H231L variant of Aequorea victoria Green Fluorescent Protein) gBlocks gene fragments (Integrated DNA Technologies, IA) and linker were inserted in frame at the N-terminus of human Gγ2. Rluc8 (A55T, C124A, S130A, K136R, A143M, M185V, M253L, and S287L variant of the Renilla renformis luciferase) gBlocks gene fragment was inserted with linkers in frame in between residues 91 and 92 of Gai2 or at the C-terminus of GPR84. The FYVE domain from human endofin (residues Q739 to K806) attached in frame at the C terminus of a humanized Renilla GFP (rGFP), were synthesized as gBlocks gene fragments.
Bioluminescence Resonance Energy Transfer (BRET) Measurement—HEK293 cells were transfected with GPR84-Rluc8 and rGFP-FYVE for the EEs trafficking biosensor or with GPR84, Gαi2-Rluc8, GFP10-Gγ2, and Gβ1 for the Gαi biosensor. The following day, transiently transfected cells were seeded in 96-well white clear bottom microplates coated with poly-D-lysine and left in culture for 24 hours. Cells were washed once with Tyrode's buffer (140 mmol/L NaCl, 1 mmol/L CaCl2, 2.7 mmol/L KCl, 0.49 mmol/L MgCl2, 0.37 mmol/L NaH2PO4, 5.6 mmol/L glucose, 12 mmol/L NaHCO3, and 25 mmol/L HEPES, pH 7.5) before performing assays in Tyrode's buffer. Test compounds were incubated with cells for 5 (Gαi) or 15 (EEs) minutes at 37° C. before addition of 200 nmol/L of the GPR84 agonist ZQ-16 (2-(Hexylthio)-6-hydroxy-4(3H)-pyrimidinone) for 5 minutes at room temperature (Gαi) or 30 minutes at 37° C. (EEs). The Rluc8 substrate coelenterazine 400A (Prolume, Lakeside, AZ) was added at a final concentration of 5 μmol/L and BRET readings were collected using an Infinite M1000 microplate reader (Tecan, Morrisville, NC). BRET^2 readings between Rluc8 and GFP10 or rGFP were collected by sequential integration of the signals detected in the 370 to 450 nm (Rluc8) and 510 to 540 nm (GFP10, rGFP) windows. The BRET signal was calculated as the ratio of light emitted by acceptor (GFP10, rGFP) over the light emitted by donor (Rluc8). The values were corrected to net BRET by subtracting the background BRET signal obtained in cells transfected with Rluc8 constructs alone. Ligand-promoted net BRET values were calculated by subtracting vehicle-induced net BRET from ligand-induced net BRET.
(Bioluminescence resonance energy transfer reports proximity on the nanometre scale.)

T1 sequence (Q9NQS5 whole entry): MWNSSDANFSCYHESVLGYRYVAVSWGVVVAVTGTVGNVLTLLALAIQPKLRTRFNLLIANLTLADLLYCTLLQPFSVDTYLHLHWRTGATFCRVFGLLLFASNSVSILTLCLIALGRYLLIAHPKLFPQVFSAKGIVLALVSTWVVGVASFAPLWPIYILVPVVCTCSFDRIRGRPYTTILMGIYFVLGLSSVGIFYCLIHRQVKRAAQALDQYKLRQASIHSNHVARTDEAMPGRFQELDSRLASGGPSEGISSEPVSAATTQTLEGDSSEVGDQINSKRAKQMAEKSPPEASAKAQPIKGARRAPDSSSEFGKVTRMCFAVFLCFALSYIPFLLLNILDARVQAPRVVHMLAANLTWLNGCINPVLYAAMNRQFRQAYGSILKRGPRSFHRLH

Turning to `COC(c1cn(CC2Oc3ccccc3O2)nn1)c1cc(C#CC2CC2)ccc1C` (centres unmarked) [Compound I-605], the inhibition at 10 µM is over 75% and the IC50 was in the range of 300 to 1000 nM.

For `Cc1cc(C#CC2CC2)cnc1-c1cn(CC2CCOCC2)nn1` [Compound I-196], the inhibition at 10 µM is at most 25%.

In turn, `Cc1cc(N2CC(C)(C(=O)Nc3ccccc3)C2)ccc1-c1cn(CC2CCCCO2)nn1` (centres unmarked) [Compound I-410] gave an inhibition at 2 µM of 25 to 50%.

Take `CC1(C)COC(Cn2cc(-c3ccc(N4CCN(Cc5ccccn5)CC4)cc3CC(F)(F)F)nn2)OC1` [Compound I-747]: the inhibition at 2 µM was over 75% and the IC50 is at most 300 nM.

For `Cc1cc(N2CC(C)(C)C2)c(Cl)cc1-c1cn(C[C@H]2CCCCO2)nn1` [Compound I-421], the inhibition at 10 µM was over 75%.

On to `Cc1cc(N2CCN(CC3CC4CCN3CC4)CC2)ccc1-c1cn(CC2OCC(C)(C)CO2)nn1` (centres unmarked) [Compound I-661], for which the inhibition at 10 µM is at most 25%.

`Cc1cc(C#CCNC(=O)OC(C)(C)C)cnc1-c1cn(CC2CCCCO2)nn1` (centres unmarked) [Compound I-538]: the inhibition at 10 µM was over 75% and the IC50 lay in the range of 300 to 1000 nM.

`COC(=O)c1cc(C#CC2CC2)ccc1-c1cn(CC2CCCCO2)nn1` (centres unmarked) [Compound I-214]: the inhibition at 10 µM is at most 25%.

Regarding `CC1(C)CN(CC#Cc2cnc(-c3cn(C[C@H]4CCCCO4)nn3)c(CC(F)(F)F)c2)C1` [Compound I-818], the inhibition at 10 µM is over 75%.

The molecule `Cc1ccc(C(C)(C)O)cc1N(C)c1cn(CC2OCC(C)(C)CO2)nn1` [Compound I-830] came in with an inhibition at 10 µM of 50 to 75%.

Regarding `C(#Cc1ccc(-c2cn(CC3CCCCO3)nn2)cc1)CN1CCCCC1` (centres unmarked) [Compound I-48], the inhibition at 15 µM (HEK293, single concentration 15 μM (designated H)) is at most 25%.

`C(#CC1CC1)c1ccc2c(c1)CCc1c-2nnn1CC1CCCCO1` (centres unmarked) [Compound I-303, 7-(cyclopropylethynyl)-3-((tetrahydro-2H-pyran-2-yl)methyl)-4,5-dihydro-3H-naphtho[1,2-d][1,2,3]triazole] had an inhibition at 10 µM of at most 25%.

In turn, `C(#CC1CC1)c1ccc2c(c1)CCc1cn(CC3CCCCO3)nc1-2` (centres unmarked) [Compound I-328] came in with an inhibition at 10 µM of at most 25%.

`Cc1cc(N2CCN(Cc3ncccn3)CC2)ccc1-c1cn(CC2CCCCO2)nn1` (centres unmarked) [Compound I-547] yielded an inhibition at 10 µM of 25 to 50%.

The molecule `Cc1cc(N2CC(NS(C)(=O)=O)C2)ccc1-c1cn(CC2CCCCO2)nn1` (centres unmarked) [Compound I-486] returned an inhibition at 10 µM of at most 25%.

Regarding `Cc1cc(C#CC2CC2)ccc1-c1cn(C[C@H]2CCCCO2)nn1` [Compound I-175], the IC50 fell in the range of 1000 to 3000 nM. The molecule further displayed an inhibition at 5 µM (HEK293, single concentration 5 μM (designated D)) of 50 to 75%.

`Cc1cc(C#CCNC(C)(C)C)ccc1-c1cn(CC2CCCCO2)nn1` (centres unmarked) [Compound I-267]: the inhibition at 10 µM lay in the range of 25 to 50%.

Take `Cc1cc(N2CC(C)(CO)C2)c(F)cc1-c1cn(C[C@H]2CCCCO2)nn1` [Compound I-804]: the IC50 lay in the range of 300 to 1000 nM. For the same molecule, the inhibition at 1 µM (HEK293, single concentration 1 μM (designated A°)) is 25 to 50%.

As to `CC#Cc1ccc(C)c(N(C)c2cn(CC3OCC4(CC4)CO3)nn2)c1` [Compound I-850], the inhibition at 10 µM is over 75%.

In turn, `Cc1cc(C#CCN2CCC(F)(F)CC2)cnc1-c1cn(CC2CCCCO2)nn1` (centres unmarked) [Compound I-250] gave an inhibition at 10 µM of 50 to 75%.

In turn, `Cc1cc(N2CC3(C2)CN(c2ccccn2)C3)ccc1-c1cn(CC2CCCCO2)nn1` (centres unmarked) [Compound I-652] returned an inhibition at 10 µM of at most 25%.

`CC(c1ccnc(C#CC2CC2)c1)c1cn(CC2CCCCO2)nn1` (centres unmarked) [Compound I-699]: the inhibition at 10 µM is at most 25%.

Molecule `Cc1cc(C#CC2CC2)cnc1-c1cn(CC2OCC3(CCC3)CO2)nn1` [Compound I-840] showed an inhibition at 2 µM of over 75%.

The molecule `Cc1c(-c2ccc(OCc3ccccn3)cc2)nnn1CC1CCCCO1` (centres unmarked) [Compound I-50] showed an inhibition at 25 µM of 25 to 50%.

Take `CC1(C)CCC(Cn2cc(-c3ncc(C#CC4CC4)cc3OC3CC3)nn2)OC1` (centres unmarked) [Compound I-739]: the inhibition at 2 µM was over 75% and the IC50 is at most 300 nM.

`Cc1c(-c2ccc(C#CC3CC3)cc2)ncn1CC1CCCCO1` (centres unmarked) [Compound I-334] had an inhibition at 25 µM of over 75%.

`CC1(C)CN(c2ccc(-c3cn(CC4CCCCO4)nn3)c(OCCO)c2)C1` (centres unmarked) [Compound I-280] returned an inhibition at 10 µM of over 75%.

Regarding `Cc1cc(N2CCN(Cc3cccnc3)CC2)ccc1-c1cn(CC2CCCCO2)nn1` (centres unmarked) [Compound I-578], the inhibition at 10 µM lay in the range of 50 to 75% and the IC50 is over 3000 nM.

For the molecule `Cc1cc(C#CCN2CC(C)(C)C2)cnc1-c1cn(Cc2ncccn2)nn1` [Compound I-473], the inhibition at 10 µM was at most 25%.

Take `Cc1cc(N2CCN(Cc3ccccn3)CC2)ccc1-c1cncn1CC1OCC(C)(C)CO1` [Compound I-683]: the inhibition at 10 µM is at most 25%.

On to `CC(C)Oc1cc(N2CC(C)(CO)C2)cnc1-c1cn(CC2OCC3(CCC3)O2)nn1` (centres unmarked) [Compound I-809], for which the inhibition at 2 µM was over 75%.

For `Cc1cc(N2CC3(CNC3)C2)ccc1-c1cn(CC2CCCCO2)nn1` (centres unmarked) [Compound I-182], the inhibition at 10 µM was at most 25%.

The molecule `Cc1cc(N2CC(N(C)Cc3ccccc3)C2)ccc1-c1cn(CC2CCCCO2)nn1` (centres unmarked) [Compound I-185] returned an inhibition at 10 µM of at most 25%.

`Cc1cc(N2CCN(C3(c4ccccn4)CC3)CC2)ccc1-c1cn(CC2CCCCO2)nn1` (centres unmarked) [Compound I-613] gave an inhibition at 10 µM of at most 25%.

Take `Cc1c(-c2cn(CC3CCCCO3)nn2)ccc(C#CC2CC2)c1F` (centres unmarked) [Compound I-505]: the inhibition at 2 µM is at most 25%.

For `Cc1cc(C#CC2CC2)cc(F)c1-c1cn(CC2CCCCO2)nn1` (centres unmarked) [Compound I-575], the inhibition at 10 µM is over 75%.

Molecule `Cc1cc(N2CC3(CCN(Cc4ccccn4)CC3)C2)ccc1-c1cn(CC2CCCCO2)nn1` (centres unmarked) [Compound I-311] had an inhibition at 10 µM of 50 to 75%.

Take `CC1(C)COC(Cn2cc(-c3ncc(C#CCN4CC(C)(CO)C4)cc3OC3CC3)nn2)OC1` [Compound I-799]: the inhibition at 10 µM is over 75% and the IC50 is at most 300 nM.

Molecule `Cc1cc(N2CC3(CN(C)C3)C2)ccc1-c1cn(CC2CCCCO2)nn1` (centres unmarked) [Compound I-145] returned an inhibition at 10 µM of at most 25%.

Consider `Cc1cc(N2CC(C)(F)C2)ccc1-c1cn(CC2CCCCO2)nn1` (centres unmarked) [Compound I-519], for which the inhibition at 10 µM fell in the range of 25 to 50%.

`Cc1cc(C#CC2CC2)ccc1-c1ccn(CC2CCCCO2)n1` (centres unmarked) [Compound I-325] returned an inhibition at 10 µM of at most 25%.

With `Cc1cc(C2CCOCC2)ccc1-c1cn(CC2CCCCO2)nn1` (centres unmarked) [Compound I-485], the inhibition at 10 µM was at most 25%.

`FC(F)(F)COc1ccc(-c2cn(CC3CCCCO3)nn2)cc1` (centres unmarked) [Compound I-51] had an inhibition at 25 µM of at most 25%.

On to `Cc1cc(C#CC2CC2)cnc1-c1cn(CC2CCCO2)nn1` (centres unmarked) [Compound I-204], for which the inhibition at 10 µM was in the range of 25 to 50%.

With `Cc1cc(N2CCN(C(C)c3ccccn3)CC2)ccc1-c1cn(CC2OCC(C)(C)CO2)nn1` (centres unmarked) [Compound I-691], the inhibition at 10 µM was over 75% and the IC50 is 300 to 1000 nM.

In the case of `Cc1cc(C#CCNC(C)C)ccc1-c1cn(CC2CCCCO2)nn1` (centres unmarked) [Compound I-131], the inhibition at 10 µM is at most 25%.

`Cc1cc(C2CCN(Cc3ccccn3)CC2)cnc1Cc1cn(CC2CCCCO2)nn1` (centres unmarked) [Compound I-504] registered an inhibition at 10 µM of at most 25%.

One may read the inhibition as the change of the read-out against control, counted positive when it falls. A low value points to a weak effect. In general, IC50 refers to the concentration at which inhibition is half-maximal. A high value points to weaker potency in that assay.
